Assay results: patent US20120003668A1, “HIGH RESOLUTION COMPLEX STRUCTURE AND ALLOSTERIC EFFECTS OF LOW MOLECULAR WEIGHT ACTIVATORS ON THE PROTEIN KINASE PDK1” (UNIVERSITAET DES SAARLANDES, priority 2008, published 2012)
Entries after “also recorded” stand apart in the source; their conditions may differ.

How the values were obtained:
[1] = biological target: T1, PDK1 50-359 [Y288G;Q292A] (Homo sapiens, UniProt O15530, Q292A/Y288G); test: Amide 1H/2H exchange and mass spectrometry
T1 sequence (O15530 with tags, fused parts or gaps Y288G/Q292A): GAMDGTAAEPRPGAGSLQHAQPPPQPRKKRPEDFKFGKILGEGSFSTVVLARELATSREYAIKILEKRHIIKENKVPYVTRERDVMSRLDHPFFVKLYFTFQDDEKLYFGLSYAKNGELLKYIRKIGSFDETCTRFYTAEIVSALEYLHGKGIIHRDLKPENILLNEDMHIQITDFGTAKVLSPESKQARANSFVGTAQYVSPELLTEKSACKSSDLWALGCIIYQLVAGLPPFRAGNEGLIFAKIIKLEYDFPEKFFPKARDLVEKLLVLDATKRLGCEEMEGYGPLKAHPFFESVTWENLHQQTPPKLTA
Description: For local exchange analysis, the labeled proteins were digested with pepsin and the resulting polypeptides analyzed by tandem mass-spectrometry (LC-MS/MS) for their incorporation of deuterium atoms. The graphics represent the number of deuterium atoms incorporated into each polypeptide upon the stated incubation time in deuterated water. […] Over time, amide hydrogen atoms exchanged for deuteriums and the molecular weight of the protein increased. We repeated the ^1H/^2H exchange experiments at four different incubation times: 1, 5, 15 and 45 minutes. […] In the presence of peptide or small compounds, protein and ligand solution were pre-incubated on ice for 50 min before the mixture was diluted into labeling buffer. After the exchange reaction, samples were loaded on a pepsin column for one minute for digestion into peptides and samples quenched at each time point. They were then subjected to liquid chromatography for separation and analyzed by tandem mass-spectrometry (LC-MS/MS) for their incorporation of deuterium atoms. The entire plumbing system was immersed in an ice bath. 61 polypeptides were identified with overlapping regions, covering 80% of PDK1 sequence. As it is not possible to predict the cleavage sites of pepsin in the PDK1 sequence, it was necessary to identify the peptides generated by pepsin digestion for local-exchange analysis.

PDK1 catalytic domain = biological target: T2, PDK1 catalytic domain (Homo sapiens, UniProt O15530); test: TNP-ATP fluorescence probing of the ATP binding site conformation; format: biochemical
T2 construct: The catalytic domain (CD) of PDK1 50-359 and its mutants
T2 sequence (O15530 50-359): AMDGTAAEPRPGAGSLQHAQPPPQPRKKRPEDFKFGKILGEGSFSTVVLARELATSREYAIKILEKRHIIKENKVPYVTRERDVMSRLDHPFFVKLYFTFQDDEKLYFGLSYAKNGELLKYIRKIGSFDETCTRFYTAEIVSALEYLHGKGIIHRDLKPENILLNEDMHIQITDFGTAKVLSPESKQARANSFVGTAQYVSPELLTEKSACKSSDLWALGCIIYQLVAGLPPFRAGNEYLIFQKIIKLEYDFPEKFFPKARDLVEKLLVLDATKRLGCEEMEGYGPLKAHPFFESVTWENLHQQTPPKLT
Source text: Probing the conformation of the ATP binding site in PDK1: The activation of PDK1 by HM-polypeptides and small compounds is due to a change in the conformation of the enzyme. We probed the conformation of the ATP binding site in PDK1 by scanning the steady-state fluorescence of TNP-ATP/PDK1, in the presence or absence of P-HM-polypeptides, PIFtide, or small molecular weight compounds. Data were obtained in a Varian Cary Eclipse spectrofluorometer (excitation λ=479 nm; emission scanning, λ=500-600 nm; excitation slit=10 nm; emission slit=10 nm) at a rate of 200 nm/min, with 150 datapoints/100 nm scanning and 0.3 s averaging time. The incubation was performed at 20° C. in a buffer containing 50 mM Tris pH 7.5, 0.1 mM EDTA, 187 mM NaCl, 40 μM TNP-ATP, 15 μM PDK1 catalytic domain, 1 mM DTT and 1% DMSO. In the absence of PDK1, TNP-ATP produced approximately 1.5 arbitrary units (a.u.) of fluorescence, and the inclusion of PDK1 increased its fluorescence intensity to approximately 3.3 a.u. […] In preliminary tests, inclusion of 2.5 mM MgCl2 in the assay mix produced similar results. Data for each condition are the average of 3 scans.

[2] = biological target: T3, His-PDK1 50-556 / biotin-PIFtide interaction (Homo sapiens, UniProt O15530); test: alpha-screen displacement of the His-PDK1 biotin-PIFtide interaction; format: binding
T3 sequence (O15530 50-556): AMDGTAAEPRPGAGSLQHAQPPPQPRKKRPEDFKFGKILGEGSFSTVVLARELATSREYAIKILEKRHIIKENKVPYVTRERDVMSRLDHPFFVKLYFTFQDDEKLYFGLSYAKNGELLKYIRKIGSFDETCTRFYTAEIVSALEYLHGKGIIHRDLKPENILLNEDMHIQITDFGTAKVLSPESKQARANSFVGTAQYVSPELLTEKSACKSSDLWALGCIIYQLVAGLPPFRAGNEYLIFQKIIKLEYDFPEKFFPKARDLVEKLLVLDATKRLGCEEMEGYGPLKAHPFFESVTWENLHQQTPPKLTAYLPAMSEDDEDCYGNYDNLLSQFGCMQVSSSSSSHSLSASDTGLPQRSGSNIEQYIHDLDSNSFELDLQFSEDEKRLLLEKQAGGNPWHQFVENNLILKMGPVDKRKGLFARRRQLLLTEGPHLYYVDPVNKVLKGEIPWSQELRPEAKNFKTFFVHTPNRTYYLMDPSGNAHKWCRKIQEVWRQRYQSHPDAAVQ
Description: To study if low molecular weight compounds displaced the interaction, the compounds were incubated with the mix and the displacement of the His-PDK1 biotin-PIFtide interaction measured as a decrease in light emission.

[3] = biological target: T4, PDK1 CD (50-359) [Phe224Trp] (human, UniProt O15530 50-359); test: SPR competition (BiaCore): PDK1 [Phe224Trp] pre-incubated with PIFtide, then injected over immobilised biotin-P-HM-S6K; PIFtide displaces PDK1 from biotin-P-HM-S6K
T4 construct: also called PDK1[Phe224Trp]; PDK1 Phe224Trp
T4 sequence: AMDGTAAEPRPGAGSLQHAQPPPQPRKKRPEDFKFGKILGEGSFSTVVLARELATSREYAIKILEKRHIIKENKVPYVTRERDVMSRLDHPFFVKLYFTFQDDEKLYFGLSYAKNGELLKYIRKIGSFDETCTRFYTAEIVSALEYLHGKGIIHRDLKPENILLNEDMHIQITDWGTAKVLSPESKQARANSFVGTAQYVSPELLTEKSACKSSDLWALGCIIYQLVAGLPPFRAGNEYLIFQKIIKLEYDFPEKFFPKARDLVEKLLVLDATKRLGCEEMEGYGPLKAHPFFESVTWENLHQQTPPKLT

PDK1 CD (50-359) wt = biological target: T5, PDK1 CD (50-359) wt (human, UniProt O15530 51-360); test: SPR competition (BiaCore): PDK1 CD wt pre-incubated with PIFtide, then injected over immobilised biotin-P-HM-S6K; PIFtide displaces PDK1 from biotin-P-HM-S6K
T5 construct: also called PDK1 50-359; PDK1 CD wt
T5 sequence: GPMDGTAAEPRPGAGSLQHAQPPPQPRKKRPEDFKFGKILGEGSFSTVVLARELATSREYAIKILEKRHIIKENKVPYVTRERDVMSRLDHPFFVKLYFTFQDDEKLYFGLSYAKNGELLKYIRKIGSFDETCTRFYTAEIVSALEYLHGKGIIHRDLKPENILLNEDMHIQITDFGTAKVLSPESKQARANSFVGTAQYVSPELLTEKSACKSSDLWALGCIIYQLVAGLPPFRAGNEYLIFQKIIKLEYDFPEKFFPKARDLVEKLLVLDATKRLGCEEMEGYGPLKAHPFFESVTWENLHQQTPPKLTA

[4] = biological target: T6, PDK1 CD (50-359) [Thr226Trp] (human, UniProt O15530 50-359); test: SPR competition (BiaCore): PDK1 [Thr226Trp] pre-incubated with PIFtide, then injected over immobilised biotin-P-HM-S6K; PIFtide displaces PDK1 from biotin-P-HM-S6K
T6 construct: also called PDK1[Thr226Trp]; PDK1 Thr226Trp
T6 sequence: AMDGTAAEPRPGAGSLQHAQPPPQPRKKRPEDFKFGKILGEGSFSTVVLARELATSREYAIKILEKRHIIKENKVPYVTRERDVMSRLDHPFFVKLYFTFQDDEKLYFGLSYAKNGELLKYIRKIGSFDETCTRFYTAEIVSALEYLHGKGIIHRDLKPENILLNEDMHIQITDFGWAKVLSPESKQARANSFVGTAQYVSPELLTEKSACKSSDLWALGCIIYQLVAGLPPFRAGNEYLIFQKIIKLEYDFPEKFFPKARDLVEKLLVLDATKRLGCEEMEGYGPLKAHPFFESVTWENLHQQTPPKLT

Molecule | decreased 2H incorporation, peptide 108-121 [1] | 2H less incorporated, peptide 108-134 ([1]; first time point) | 2H less incorporated, peptide 218-247 ([1]; first time point) | 2H less incorporated, peptide 108-134 ([1]; following time points) | 2H less incorporated, peptide 146-155 ([1]; time points 15 and 45) | effect on TNP-ATP fluorescence intensity in the presence of PDK1 (PDK1 catalytic domain; 40 μM TNP-ATP, 15 μM PDK1 catalytic domain) | maximum fluorescence intensity of TNP-ATP/PDK1 (PDK1 catalytic domain; 167 μM compound, % of maximal TNP-ATP fluorescence with 15 μM PDK1 CD) [%] | displacement of the binding of PIFtide to PDK1 [2] | binding result [3] | binding result (PDK1 CD (50-359) wt) | binding result [4]
O=C(O)/C=C(/CCc1ccc(Br)cc1F)c1ccccc1 [PS08] | 1 ^2H | 4 ^2H | 1.5 ^2H | 2 ^2H | 1 ^2H | concentration dependent decrease; also recorded: concentration-dependent decrease | 60 | could be displaced | – | – | –
REPRILSEEEQEMFRDFDYIADWC (also called HM-polypeptide PIFtide) [PIFtide] | – | – | – | – | – | – | – | – | binds | binds | binds
